# Test results published in patent US20220390438A1, “Identification and Characterisation of Herbicides and Plant Growth Regulators” (priority 2019, published 2022).
# Experiments:
# [1] = tested on: wild type Marchantia plants; assay: Lethal concentration determination: Marchantia spores plated on Johnson's medium agar supplemented with herbicide, 14-day old sporelings; assay type: in vivo, Marchantia polymorpha
# Method: A lethal concentration of the herbicide hit was determined in the condition of the mutagenesis concentration. 20000 Marchantia spores were plated in 90 mm Petri dishes containing 25 mL of Johnson's medium containing 1.4% agar and supplemented with a range of herbicide hit concentrations ranging from 1 to 50000 nM. The lethal concentration was defined as the minimum concentration of herbicide hit sufficient to kill 100% of the wild type Marchantia plants (FIG. 11).
# If no lethal concentration was observed, the highest concentration would be used in place of the lethal concentration provided that it caused the plants to show a phenotype distinct from the phenotype of untreated plants. For example, this alternative phenotype may be a strong reduction in growth (FIG. 12) or a marked change in the shape of the plants, or a change in plant pigmentation.
# Marchantia polymorpha spores were irradiated with ultraviolet B irradiation and seven independent mutant lines resistant to the herbicide chlorsulfuron were identified. Chlorsulfuron resistance was determined by a Marchantia polymorpha plant that was alive two weeks following exposure to a lethal dose of Chlorsulfuron (0.1 ppm dose, i.e. a dose sufficient to kill 100% of wild-type plants).
# [2] = tested on: Marchantia polymorpha; conditions: stated as known, like liverworts in general; cited from earlier work
# [3] = 1000 μM herbicide, 14-day old sporelings in Petri dishes, three replicates
Structure (SMILES),"growth of sporelings [1, 3]","survival of sporelings [1, 3]","lethal dose (dose sufficient to kill 100% of wild-type plants) ([1]; wild-type Marchantia polymorpha, two weeks following exposure)",sensitivity of Marchantia polymorpha to the herbicide [2]
COc1nc(C)nc(NC(=O)NS(=O)(=O)c2ccccc2Cl)n1 [Chlorsulfuron],marked reduction in growth,have not all died,0.1 ppm,
CNc1cnn(-c2cccc(C(F)(F)F)c2)c(=O)c1Cl [Norflurazon],,have all died,,
CP(=O)(O)CCC(N)C(=O)O (stereo not drawn) [glufosinate],,,,insensitive
O=C(O)CNCP(=O)(O)O [glyphosate],,,,insensitive
